Data as given in ChEMBL document CHEMBL3997846, “Synthesis and activity of nucleoside-based antiprotozoan compounds” (Bioorg Med Chem, 2017).

Columns and labels:
[1] = test system: L6; assay: Cytotoxicity against rat L6 cells assessed as growth inhibition after 72 hrs by alamar blue assay; format: cell-based; settings: L6, 72 h
[2] = test system: Plasmodium falciparum; assay: Antiplasmodial activity against chloroquine resistant Plasmodium falciparum K1 erythrocytic stage assessed as reduction in [3H]hypoxanthine incorporation after 48 hrs by liquid scintillation counting assay; format: functional
[3] = test system: Trypanosoma brucei rhodesiense; assay: Antitrypanosomal activity against bloodstream forms of Trypanosoma brucei rhodesiense STIB900 trypomastigotes after 72 hrs by alamar blue assay; format: functional; settings: STIB900, 72 h
[4] = Selectivity index, ratio of IC50 for rat L6 cells to IC50 for Leishmania donovani MHOM/SD/62/ISCL2D axenic amastigotes; format: toxicity; settings: read-out: Ratio IC50
[5] = Selectivity index, ratio of IC50 for rat L6 cells to IC50 for chloroquine resistant Plasmodium falciparum K1 erythrocytic stage; format: toxicity; settings: read-out: Ratio IC50
[6] = test system: Trypanosoma cruzi; assay: Antitrypanosomal activity against Trypanosoma cruzi Tulahuen strain C2C4 amastigote forms harboring LacZ infected in rat L6 cells after 96 hrs by CPRG/Nonidet reagent based photometric method; format: functional, cell-based; settings: Tulahuen strain C2C4, L6, 96 h
[7] = test system: Leishmania donovani; assay: Antileishmanial activity against Leishmania donovani MHOM/SD/62/ISCL2D axenic amastigotes after 72 hrs by alamar blue assay; format: functional
[8] = Selectivity index, ratio of IC50 for rat L6 cells to IC50 for Trypanosoma cruzi Tulahuen strain C2C4 amastigote forms harboring LacZ infected in rat L6 cells; format: toxicity, cell-based; settings: read-out: Ratio IC50
[9] = Selectivity index, ratio of IC50 for rat L6 cells to IC50 for bloodstream forms of Trypanosoma brucei rhodesiense STIB900 trypomastigotes; format: toxicity; settings: read-out: Ratio IC50

SMILES | IC50 [1] [µM] | IC50 [2] [µM] | IC50 [3] [µM] | selectivity ratio [4] | selectivity ratio [5] | IC50 [6] [µM] | IC50 [7] [µM] | selectivity ratio [8] | selectivity ratio [9]
C[S+]([O-])C[C@H]1O[C@@H](n2cnc3c(N)nc(Cl)nc32)[C@H](O)[C@@H]1O (some centres undefined) | 259 | 14 | 75 | < 1 | 18 | > 260 | > 260 | < 1 | 3
CC(=O)O[C@@H]1[C@H](OC(C)=O)[C@@H](CN=[N+]=[N-])O[C@H]1n1cnc2c(N)nc(Cl)nc21 | 141 | 13 | 64 | 1 | 11 | 93 | 114 | 2 | 2
CSC[C@H]1O[C@@H](n2cnc3c(N)nc(Cl)nc32)[C@H](OC(C)=O)[C@@H]1OC(C)=O | 216 | 12 | 31 | 6 | 18 | 161 | 39 | 1 | 7
CNc1nc(I)nc2c1ncn2[C@@H]1O[C@H](CSC)[C@@H](O)[C@H]1O | – | – | 21 | 1 | – | 104 | 101 | 1 | 6
CS(=O)(=O)C[C@H]1O[C@@H](n2cnc3c(N)nc(Cl)nc32)[C@H](O)[C@@H]1O | 156 | 25 | 126 | < 0.6 | 6 | 156 | > 275 | 1 | 1
CSC[C@H]1O[C@@H](n2cnc3c(N)nc(F)nc32)[C@H](O)[C@@H]1O | – | – | 4.3 | 0.7 | – | 2.6 | 0.8 | 0.2 | 0.1
CSC[C@H]1O[C@@H](n2cnc3c(N(C)N=O)nc(F)nc32)[C@H](O)[C@@H]1O | – | – | 56 | 0.6 | – | 129 | 190 | 0.9 | 2
CS(=O)(=O)C[C@H]1O[C@@H](n2cnc3c(N)nc(F)nc32)[C@H](O)[C@@H]1O | 5 | 8 | 17 | 0.1 | 0.6 | 35 | 37 | 0.1 | 0.3
CSC[C@H]1O[C@@H](n2cnc3c(N)nc(F)nc32)[C@H](OC(C)=O)[C@@H]1OC(C)=O | 15 | 2.8 | 26 | 0.8 | 5 | 15 | 18 | 1 | 0.6
C[S+]([O-])C[C@H]1O[C@@H](n2cnc3c(N)nc(F)nc32)[C@H](O)[C@@H]1O (some centres undefined) | 13 | 5.8 | 34 | 0.4 | 2 | 74 | 33 | 0.2 | 0.4
CSC[C@H]1O[C@@H](n2cnc3c(N)nc(N=[N+]=[N-])nc32)[C@H](O)[C@@H]1O | – | – | 51 | 0.8 | – | 144 | 288 | 2 | 5
CNc1nc(C#N)nc2c1ncn2[C@@H]1O[C@H](CSC)[C@@H](O)[C@H]1O | – | – | 30 | 1 | – | 25 | 22 | 1 | 0.8
CC(=O)O[C@@H]1[C@H](OC(C)=O)[C@@H](CS(C)(=O)=O)O[C@H]1n1cnc2c(N)nc(Cl)nc21 | 114 | 10 | 14 | < 0.6 | 11 | > 200 | > 200 | < 0.6 | 8
CSC[C@H]1O[C@@H](n2cnc3c(N)nc(Cl)nc32)[C@H](O)[C@@H]1O | – | – | 203 | 5 | – | > 270 | 60 | < 1 | 1
CSC[C@H]1O[C@@H](n2cnc3c(N)nc(NN)nc32)[C@H](O)[C@@H]1O | – | – | 149 | 1 | – | 157 | 173 | 1 | 1
O=C(Cn1ccnc1[N+](=O)[O-])NCc1ccccc1 [BENZNIDAZOLE] | > 385 | – | – | – | – | 1.64 | – | – | –
CCN(CC)CCCC(C)Nc1ccnc2cc(Cl)ccc12 (centres undefined) [CHLOROQUINE] | 91 | – | – | – | – | – | – | – | –
CCCCCCCCCCCCCCCCOP(=O)([O-])OCC[N+](C)(C)C [MILTEFOSINE] | 137 | – | – | – | – | – | 0.3 | – | –
